Experimental data taken from patent publication US8877707B2, “Inhibitors of HCV NS5A” (Presidio Pharmaceuticals, Inc., priority 2010, dated 2014).

The compounds below were run on HCV genotype 1b replicon in Huh 7 cells (assay: HCV replicon assay (1b_Huh-Luc/Neo-ET cell line, luciferase readout)). Conditions: Hepatitis C virus; Table 1; genotype 1b replicon, Huh 7 cells, 72 h, luciferase; read-out: Inhibition of HCV genotype 1b.
Format: cell-based
In short: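 Huh 7 cells carrying a bicistronic genotype 1b luciferase replicon were treated with compound in triplicate the day after plating and incubated 72 h. Luciferase activity expressed as % of untreated control; EC50 from a four-parameter logistic fit, repeated several times.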

Row | SMILES | EC50 [nM]
1 | COC(=O)N[C@H](C(=O)N1CCC[C@H]1c1nc(-c2ccc3cc(-c4ccc(-c5cnc([C@@H]6CCCN6C(=O)[C@@H](NC(=O)OC)C(C)C)[nH]5)cc4)ccc3n2)c[nH]1)C(C)C [compound 102] | < 1
2 | COC(=O)N[C@H](C(=O)N1CCC[C@H]1c1ncc(-c2ccc(-c3ccc4nc(-c5c[nH]c([C@@H]6CCCN6C(=O)[C@H](NC(=O)OC)c6ccccc6)n5)ccc4c3)cc2)[nH]1)C(C)C [compound 103] | < 1
3 | COC(=O)N[C@H](C(=O)N1CCC[C@H]1c1ncc(-c2ccc(-c3ccc4cc(-c5c[nH]c([C@@H]6CCCN6C(=O)[C@@H](NC(=O)OC)C6CCOCC6)n5)ccc4c3)c(C)c2)[nH]1)C(C)C [compound 104] | < 1
4 | COC(=O)N[C@H](C(=O)N1CCC[C@H]1c1ncc(-c2ccc(-c3ccc4cc(-c5c[nH]c([C@@H]6CCCN6C(=O)[C@H](NC(=O)OC)c6ccccc6)n5)ccc4c3)cc2)[nH]1)C1CCOCC1 [compound 105] | < 1
5 | COC(=O)N[C@H](C(=O)N1CCC[C@H]1c1ncc(-c2ccc(-c3ccc4cc(-c5c[nH]c([C@@H]6CCCN6C(=O)[C@H](NC(=O)OC)c6ccccc6)n5)ccc4c3)c(F)c2)[nH]1)C1CCOCC1 [compound 106] | < 1
6 | COC(=O)N[C@H](C(=O)N1CCC[C@H]1c1nc(-c2ccc3nc(-c4ccc(-c5cnc([C@@H]6CCCN6C(=O)[C@H](NC(=O)OC)c6ccccc6)[nH]5)cc4F)ccc3c2)c[nH]1)C(C)C [compound 107] | < 1
7 | COC(=O)N[C@H](C(=O)N1CCC[C@H]1c1nc(-c2ccc3nc(-c4ccc(-c5cnc([C@@H]6CCCN6C(=O)[C@@H](NC(=O)OC)C6CCOCC6)[nH]5)c(F)c4)ccc3c2)c[nH]1)C1CCOCC1 [compound 108] | < 1
8 | COC(=O)N[C@@H](C(=O)N1CCC[C@H]1c1nc(-c2ccc3nc(-c4ccc(-c5cnc([C@@H]6CCCN6C(=O)[C@H](NC(=O)OC)c6ccccc6)[nH]5)c(F)c4)ccc3c2)c[nH]1)c1ccccc1 [compound 109] | < 1
9 | COC(=O)N[C@H](C(=O)N1CCC[C@H]1c1nc(-c2ccc3cc(-c4ccc(-c5cnc([C@@H]6CCCN6C(=O)[C@H](NC(=O)OC)c6ccsc6)[nH]5)cc4)ccc3c2)c[nH]1)C1CCOCC1 [compound 110] | < 1
10 | COC(=O)N[C@H](C(=O)N1CCC[C@H]1c1nc(-c2ccc3cc(-c4ccc(-c5cnc([C@@H]6CCCN6C(=O)[C@H](NC(=O)OC)c6ccc(F)cc6)[nH]5)cc4)ccc3c2)c[nH]1)C1CCOCC1 [compound 111] | < 1
11 | COC(=O)N[C@H](C(=O)N1CCC[C@H]1c1nc(-c2ccc3cc(-c4ccc(-c5cnc([C@@H]6CCCN6C(=O)[C@@H](NC(=O)OC6CCOCC6)c6ccccc6)[nH]5)cc4)ccc3c2)c[nH]1)C1CCOCC1 [compound 112] | < 1
12 | COC(=O)N[C@H](C(=O)N1CCC[C@H]1c1nc(-c2ccc3cc(-c4ccc(-c5cnc([C@@H]6CCCN6C(=O)[C@H](NC(=O)OC6CCOCC6)c6ccccc6)[nH]5)cc4)ccc3c2)c[nH]1)C1CCOCC1 [compound 113] | < 1
13 | COC(=O)N[C@H](C(=O)N1CCC[C@H]1c1nc(-c2ccc3cc(-c4ccc(-c5cnc([C@@H]6CCCN6C(=O)[C@H](NC(=O)OC)c6ccccc6)[nH]5)cc4F)ccc3c2)c[nH]1)C1CCOCC1 [compound 114] | < 1
14 | COC(=O)N[C@H](C(=O)N1CCC[C@H]1c1ncc(-c2ccc3cc(-c4ccc(-c5cnc([C@@H]6CCCN6C(=O)[C@H](NC(=O)OC)c6ccccc6)[nH]5)cc4)ccc3c2)[nH]1)[C@@H](C)OC [compound 115] | < 1
15 | COC(=O)N[C@H](C(=O)N1CCC[C@H]1c1ncc(-c2ccc3cc(-c4ccc(-c5cnc([C@@H]6CCCN6C(=O)[C@@H](c6ccccc6)N6CCOCC6)[nH]5)cc4)ccc3c2)[nH]1)C(C)C [compound 116] | < 1
16 | COC(=O)N[C@H](C(=O)N1CCC[C@H]1c1ncc(-c2ccc3cc(-c4ccc(-c5cnc([C@@H]6CCCN6C(=O)[C@H](NC(=O)OC6CCOCC6)c6ccccc6)[nH]5)cc4)ncc3c2)[nH]1)C1CCOCC1 [compound 117] | < 1
17 | COC(=O)N[C@H](C(=O)N1CCC[C@H]1c1ncc(-c2ccc3cc(-c4ccc(-c5cnc([C@@H]6CCCN6C(=O)[C@H](NC(=O)OC(C)(C)C)c6ccccc6)[nH]5)cc4)ncc3c2)[nH]1)C1CCOCC1 [compound 118] | < 1
18 | COC(=O)N[C@H](C(=O)N1CCC[C@H]1c1ncc(-c2ccc(-c3ccc4cc(-c5cnc([C@@H]6CCCN6C(=O)[C@H](NC(=O)OC)c6ccccc6)[nH]5)ccc4n3)c(F)c2)[nH]1)C(C)C [compound 119] | < 1
19 | COC(=O)N[C@H](C(=O)N1CCC[C@H]1c1ncc(-c2ccc(-c3ccc4cc(-c5cnc([C@@H]6CCCN6C(=O)[C@@H](NC(=O)OC)C6CCOCC6)[nH]5)ccc4n3)c(F)c2)[nH]1)C(C)C [compound 120] | < 1
20 | COC(=O)N[C@H](C(=O)N1CCC[C@H]1c1ncc(-c2ccc(-c3ccc4cc(-c5cnc([C@@H]6CCCN6C(=O)[C@H](NC(=O)OC6CCOCC6)c6ccccc6)[nH]5)ccc4n3)c(F)c2)[nH]1)C(C)C [compound 121] | < 1
21 | COC(=O)N[C@H](C(=O)N1CCC[C@H]1c1ncc(-c2ccc(-c3ccc4cc(-c5cnc([C@@H]6CCCN6C(=O)[C@H](NC(=O)OC(C)(C)C)c6ccccc6)[nH]5)ccc4n3)c(F)c2)[nH]1)C(C)C [compound 122] | < 1
22 | COC(=O)N[C@H](C(=O)N1CCC[C@H]1c1ncc(-c2ccc(-c3ccc4cc(-c5cnc([C@@H]6CCCN6C(=O)[C@@H](NC(=O)OC)C6CCOCC6)[nH]5)ccc4n3)cc2F)[nH]1)C(C)C [compound 123] | < 1
23 | COC(=O)N[C@H](C(=O)N1CCC[C@H]1c1ncc(-c2ccc(-c3ccc4cc(-c5cnc([C@@H]6CCCN6C(=O)[C@H](NC(=O)OC)c6ccccc6)[nH]5)ccc4n3)cc2F)[nH]1)C(C)C [compound 124] | < 1
24 | COC(=O)N[C@H](C(=O)N1CCC[C@H]1c1ncc(-c2ccc(-c3ccc4cc(-c5cnc([C@@H]6CCCN6C(=O)[C@H](NC(=O)OC6CCOCC6)c6ccccc6)[nH]5)ccc4n3)cc2F)[nH]1)C(C)C [compound 125] | < 1
25 | COC(=O)N[C@H](C(=O)N1CCC[C@H]1c1ncc(-c2ccc3nc(-c4ccc(-c5cnc([C@@H]6CCCN6C(=O)[C@@H](NC(=O)OC)C(C)C)[nH]5)c(F)c4)ccc3c2)[nH]1)C(C)C [compound 126] | < 1
26 | COC(=O)N[C@H](C(=O)N1CCC[C@H]1c1ncc(-c2ccc3cc(-c4ccc(-c5cnc([C@@H]6CCCN6C(=O)[C@H](NC(=O)OC)c6ccccc6)[nH]5)c(F)c4)ncc3c2)[nH]1)C1CCOCC1 [compound 127] | < 1
27 | COC(=O)N[C@H](C(=O)N1CCC[C@H]1c1ncc(-c2ccc(-c3cc4ccc(-c5cnc([C@@H]6CCCN6C(=O)[C@@H](NC(=O)OC)C6CCOCC6)[nH]5)cc4cn3)cc2F)[nH]1)C(C)C [compound 128] | < 1
28 | COC(=O)N[C@H](C(=O)N1CCC[C@H]1c1ncc(-c2ccc(-c3ccc4cc(-c5cnc([C@@H]6CCCN6C(=O)[C@H](NC(=O)OC)c6ccccc6)[nH]5)ccc4n3)c(F)c2)[nH]1)C1CCOCC1 [compound 129] | < 1
29 | COC(=O)N[C@H](C(=O)N1CCC[C@H]1c1ncc(-c2cccc(-c3cccc4cc(-c5cnc([C@@H]6CCCN6C(=O)[C@@H](NC(=O)OC)C(C)C)[nH]5)ccc34)c2)[nH]1)C(C)C [compound 130] | < 1
